Data taken from patent US20120253032A1, “NOVEL CATIONIC LIPIDS WITH SHORT LIPID CHAINS FOR OLIGONUCLEOTIDE DELIVERY” (priority 2009, published 2012).

How the values were obtained:
[1] = test system: mKC; test: Mouse in vivo cytokine mKC induction (plasma, Searchlight multiplexed cytokine array); settings: RDVs containing luciferase siRNA; plasma 3 hours post dose; relative to PBS control
Description: (§1) FIG. 2: Mouse in vivo Cytokine mKC Induction 3 hour post injection. LNPs utilizing compound 4, in the nominal compositions described immediately above, were evaluated for in vivo efficacy and induction of inflammatory cytokines in a luciferase mouse model. The siRNA targets the mRNA transcript for the firefly (Photinus pyralis) luciferase gene (Accession #M15077). […] The in vivo luciferase model employs a transgenic mouse in which the firefly luciferase coding sequence is present in all cells. ROSA26-LoxP-Stop-LoxP-Luc (LSL-Luc) transgenic mice licensed from the Dana Farber Cancer. Institute are induced to express the Luciferase gene by first removing the LSL sequence with a recombinant Ad-Cre virus (Vector Biolabs). Due to the organo-tropic nature of the virus, expression is limited to the liver when delivered via tail vein injection. Luciferase expression levels in liver are quantitated by measuring light output, using an IVIS imager (Xenogen) following administration of the luciferin substrate (Caliper Life Sciences). Pre-dose luminescence levels are measured prior to administration of the RDVs. […] In vivo efficacy results are expressed as % inhibition of luminescence relative to pre-dose luminescence levels. Plasma cytokine levels were determined using the Searchlight multiplexed cytokine chemoluminescent array (Pierce/Thermo). […]

[2] = test system: mRNA transcript for the firefly (Photinus pyralis) luciferase gene; test: In vivo efficacy in luciferase mouse model (bioluminescence, IVIS imager); settings: tail vein injection; for Average % Inhibition of Bioluminescence: LNPs prepared from the cationic lipid with Luc siRNA, 3 mg Kg^−1, imaged 48 hours post dose, relative to pre-dose luminescence
Description: LNPs utilizing compound 4, in the nominal compositions described immediately above, were evaluated for in vivo efficacy and induction of inflammatory cytokines in a luciferase mouse model. The siRNA targets the mRNA transcript for the firefly (Photinus pyralis) luciferase gene (Accession #M15077). […] The in vivo luciferase model employs a transgenic mouse in which the firefly luciferase coding sequence is present in all cells. ROSA26-LoxP-Stop-LoxP-Luc (LSL-Luc) transgenic mice licensed from the Dana Farber Cancer. Institute are induced to express the Luciferase gene by first removing the LSL sequence with a recombinant Ad-Cre virus (Vector Biolabs). Due to the organo-tropic nature of the virus, expression is limited to the liver when delivered via tail vein injection. Luciferase expression levels in liver are quantitated by measuring light output, using an IVIS imager (Xenogen) following administration of the luciferin substrate (Caliper Life Sciences). Pre-dose luminescence levels are measured prior to administration of the RDVs. Luciferin in PBS (15 mg/mL) is intraperitoneally (IP) injected in a volume of 150 uL. After a four minute incubation period mice are anesthetized with isoflurane and placed in the IVIS imager. The RDVs (containing siRNA) in PBS vehicle were tail vein injected n a volume of 0.2 mL. Final dose levels ranged from 0.3 to 3 mg/kg siRNA. PBS vehicle alone was dosed as a control. Three hours post dose, mice were bled retro-orbitally to obtain plasma for cytokine analysis. Mice were imaged 48 hours post dose using the method described above. Changes in luciferin light output directly correlate with luciferase mRNA levels and represent an indirect measure of luciferase siRNA activity. In vivo efficacy results are expressed as % inhibition of luminescence relative to pre-dose luminescence levels. Plasma cytokine levels were determined using the Searchlight multiplexed cytokine chemoluminescent array (Pierce/Thermo). Systemic administration of the luciferase siRNA RDVs decreased luciferase expression in a dose dependant manner.

[3] = test system: IL-6; test: Mouse in vivo cytokine IL-6 induction (plasma, Searchlight multiplexed cytokine array); settings: RDVs containing luciferase siRNA; plasma 3 hours post dose; relative to PBS control
Description: as §1, with “1:” for “2:”, “IL-6” for “mKC”

Structure (SMILES)	Mouse plasma level of cytokine mKC [1]	Average % Inhibition of Bioluminescence [2] [%]	In vivo efficacy (decrease of luciferase expression) ([2]; RDVs containing luciferase siRNA, 0.3 to 3 mg/kg siRNA, 48 hours post dose)	Mouse plasma level of cytokine IL-6 [3]
CCCCCCCCOC[C@H](CN(C)C)OCCCCO[C@H]1CC[C@@]2(C)C(=CC[C@H]3[C@@H]4CC[C@H]([C@H](C)CCCC(C)C)[C@@]4(C)CC[C@@H]32)C1 [Compound 4, (2S)-2-{4-[(3β)-cholest-5-en-3-yloxy]butoxy}-N,N-dimethyl-3-(octyloxy)propan-1-amine]	minimal cytokine induction	87	Greater efficacy	minimal cytokine induction
CCCCC/C=C\C/C=C\CCCCCCCCOCC(CN(C)C)OCCCCCCCCO[C@H]1CC[C@@]2(C)C(=CC[C@H]3[C@@H]4CC[C@H]([C@H](C)CCCC(C)C)[C@@]4(C)CC[C@@H]32)C1 (stereo partly shown) [Compound 12, S-Octyl CLinDMA, reference compound]	significantly increased	76	–	significantly increased
